In article PMC4585259 (Frontiers in Pharmacology, 2015):
Where two headings read alike, the source gives them in different places.

Molecular target: T1, rNav1.2 sodium channels (Rattus norvegicus, UniProt P04775)
T1 construct: host or cells: HEK-293
Assay: QPatch automated patch clamp, inhibition of sodium currents evoked by 5 Hz trains at three extracellular pH values
Format: cell-based
Details: for class of pH-dependence pattern (cluster analysis): Ward's method on 18 variables of affinity, reversibility, onset; for τoffset / τonset: concentration (lidocaine 300 μM, memantine 30 μM); for inhibition: 100 μM
Procedure, shortened: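 Trains of 5 steps from −90 to −10 mV every 20 s. Apparent affinity, onset/offset time constants (single-exponential fits) and reversibility (w−i)/(c−i) were derived from single-concentration data.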

[1] = pH 6.0, single concentration (lidocaine 300 μM, memantine 30 μM), geometric mean of 5, read-out: apparent affinity
[2] = pH 7.3, single concentration (lidocaine 300 μM, memantine 30 μM), geometric mean of 5, read-out: apparent affinity
[3] = pH 8.6, single concentration (lidocaine 300 μM, memantine 30 μM), geometric mean of 5, read-out: apparent affinity
[4] = pH=6.0, cc 100 mM, read-out: Apparent Affinity
[5] = pH=7.3, cc 100 mM, read-out: Apparent Affinity
[6] = pH=8.6, cc 100 mM, read-out: Apparent Affinity

T1 sequence (P04775 whole entry): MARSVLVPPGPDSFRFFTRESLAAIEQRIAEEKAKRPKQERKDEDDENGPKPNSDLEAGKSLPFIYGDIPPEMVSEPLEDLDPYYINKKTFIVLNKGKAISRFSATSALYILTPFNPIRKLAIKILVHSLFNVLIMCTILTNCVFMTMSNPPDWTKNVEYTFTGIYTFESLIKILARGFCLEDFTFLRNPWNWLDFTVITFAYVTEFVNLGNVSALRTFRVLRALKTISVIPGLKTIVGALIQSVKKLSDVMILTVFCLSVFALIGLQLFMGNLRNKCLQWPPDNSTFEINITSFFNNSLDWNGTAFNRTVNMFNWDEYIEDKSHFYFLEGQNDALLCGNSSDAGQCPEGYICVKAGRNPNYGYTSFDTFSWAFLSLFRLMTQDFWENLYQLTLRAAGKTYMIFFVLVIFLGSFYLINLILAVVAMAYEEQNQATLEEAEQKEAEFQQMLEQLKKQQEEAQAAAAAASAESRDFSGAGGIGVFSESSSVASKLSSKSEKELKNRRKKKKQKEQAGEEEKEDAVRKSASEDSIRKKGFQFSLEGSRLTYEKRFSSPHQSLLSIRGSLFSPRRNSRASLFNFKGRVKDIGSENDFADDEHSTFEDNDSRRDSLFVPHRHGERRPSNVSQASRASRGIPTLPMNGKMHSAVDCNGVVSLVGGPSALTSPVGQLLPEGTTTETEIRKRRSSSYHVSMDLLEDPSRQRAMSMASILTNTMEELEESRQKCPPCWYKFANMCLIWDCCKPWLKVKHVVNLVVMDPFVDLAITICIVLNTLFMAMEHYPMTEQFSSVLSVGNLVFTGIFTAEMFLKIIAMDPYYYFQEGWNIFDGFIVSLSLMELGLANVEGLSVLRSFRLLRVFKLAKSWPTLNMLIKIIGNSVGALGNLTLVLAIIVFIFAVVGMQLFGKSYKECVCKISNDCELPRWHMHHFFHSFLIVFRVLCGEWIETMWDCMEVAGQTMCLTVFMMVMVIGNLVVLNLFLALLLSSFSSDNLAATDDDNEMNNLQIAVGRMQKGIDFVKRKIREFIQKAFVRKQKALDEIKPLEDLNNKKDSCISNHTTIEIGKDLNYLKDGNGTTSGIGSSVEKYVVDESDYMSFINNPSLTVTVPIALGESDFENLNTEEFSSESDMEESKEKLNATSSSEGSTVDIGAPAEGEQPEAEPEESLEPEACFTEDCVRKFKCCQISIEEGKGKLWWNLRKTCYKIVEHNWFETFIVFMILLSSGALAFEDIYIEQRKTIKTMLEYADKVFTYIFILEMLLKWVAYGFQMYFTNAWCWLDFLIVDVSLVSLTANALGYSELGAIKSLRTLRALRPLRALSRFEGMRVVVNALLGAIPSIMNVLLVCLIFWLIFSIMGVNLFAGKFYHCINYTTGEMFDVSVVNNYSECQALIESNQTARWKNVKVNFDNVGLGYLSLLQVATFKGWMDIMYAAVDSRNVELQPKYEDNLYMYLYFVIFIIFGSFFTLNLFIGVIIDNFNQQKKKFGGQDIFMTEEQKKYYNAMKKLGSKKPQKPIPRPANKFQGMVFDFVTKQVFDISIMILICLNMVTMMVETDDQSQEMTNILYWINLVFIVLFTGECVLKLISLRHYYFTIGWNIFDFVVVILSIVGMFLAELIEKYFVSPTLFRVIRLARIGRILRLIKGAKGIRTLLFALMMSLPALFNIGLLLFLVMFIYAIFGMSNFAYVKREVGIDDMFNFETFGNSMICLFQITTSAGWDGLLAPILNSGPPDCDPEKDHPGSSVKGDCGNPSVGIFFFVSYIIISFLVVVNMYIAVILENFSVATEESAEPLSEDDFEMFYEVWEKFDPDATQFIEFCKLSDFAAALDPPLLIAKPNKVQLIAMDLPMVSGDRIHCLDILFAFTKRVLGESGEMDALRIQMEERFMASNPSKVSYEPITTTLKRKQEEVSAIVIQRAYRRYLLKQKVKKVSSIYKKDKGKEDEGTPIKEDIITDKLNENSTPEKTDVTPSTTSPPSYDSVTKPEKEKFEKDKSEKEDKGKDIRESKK

In the case of Nc1nc2ccc(OC(F)(F)F)cc2s1 [riluzole], the “class of pH-dependence pattern (cluster analysis)” value (shortened to “class of pH-dependence pattern”) is reported as “Class G”, the τoffset (pH 6.0) is reported as 23.60 s and the τonset (pH 6.0) is reported as 9.20 s. For the same molecule, the τoffset (pH 7.3) was 21.40 s, the τonset (pH 7.3) was 9.60 s and the τoffset (pH 8.6) was 23.40 s. For the same molecule, the τonset (pH 8.6) was 10.40 s, the Reversibility (pH=6.0, cc 30 mM) was 0.45 and the Reversibility (pH=7.3, cc 30 mM) was 0.73. The Reversibility (pH=8.6, cc 30 mM) was 0.45.
In the case of Cc1nc2sccn2c(=O)c1CCN1CCC(=C(c2ccc(F)cc2)c2ccc(F)cc2)CC1 [ritanserin], the “fold more potent at neutral pH than at pH = 6.0” value (30 μM) is reported as 3.5 fold, the “fold more potent at neutral pH than at pH = 8.6” value (30 μM) is reported as 5.9 fold and the “class of pH-dependence pattern” value is reported as “Class E”. The “effect of alkalic pH on onset/offset kinetics” value (in words) was “decelerated onset”, the alkalization-induced recovery (neutral-to-alkalic solution exchange, in words) was “prominent alkalization-induced recovery” and the “reversibility at all three pH values” (pH 6.0, 7.3 and 8.6) was “below 0.6”. The “Ratio Reversibility” value (pH 6.0/7.3, cc 30 mM) was 0.981, the “Ratio Tau Offset” value (pH 6.0/7.3, cc 30 mM) was 0.863 and the “Ratio Tau Onset” value (pH 6.0/7.3, cc 30 mM) was 0.656. For the same molecule, the “log Ratio App Aff” value (pH 6.0/7.3, cc 30 mM) was 0.541, the “Ratio Reversibility” value (pH 6.0/8.6, cc 30 mM) was 4.330 and the “Ratio Tau Offset” value (pH 6.0/8.6, cc 30 mM) was 0.456. For the same molecule, the “Ratio Tau Onset” value (pH 6.0/8.6, cc 30 mM) was 0.393, the “log Ratio App Aff” value (pH 6.0/8.6, cc 30 mM) was -0.230 and the τoffset (pH 6.0) was 17.60 s. The τonset (pH 6.0) was 11.80 s, the Kd [1] was 30.8 µM and the “Ratio Reversibility” value (pH 7.3/8.6, cc 30 mM) was 4.412. For the same molecule, the “Ratio Tau Offset” value (pH 7.3/8.6, cc 30 mM) was 0.528, the “Ratio Tau Onset” value (pH 7.3/8.6, cc 30 mM) was 0.600 and the “log Ratio App Aff” value (pH 7.3/8.6, cc 30 mM) was -0.772. The τoffset (pH 7.3) was 20.40 s, the τonset (pH 7.3) was 18.00 s and the Kd [2] was 8.87 µM. For the same molecule, the τoffset (pH 8.6) was 38.60 s, the τonset (pH 8.6) was 30.00 s and the Kd [3] was 52.4 µM. The Reversibility (pH=6.0, cc 30 mM) was 0.36, the Kd (pH=6.0, cc 30 mM, read-out: Apparent Affinity) was 30.8 µM and the Reversibility (pH=7.3, cc 30 mM) was 0.37. For the same molecule, the Kd (pH=7.3, cc 30 mM, read-out: Apparent Affinity) was 8.87 µM, the Reversibility (pH=8.6, cc 30 mM) was 0.08 and the Kd (pH=8.6, cc 30 mM, read-out: Apparent Affinity) was 52.4 µM.
In the case of C[Si](C)(Cc1ccc(F)cc1)CN1CCCCC1 [silperisone], the inhibition (pH 6.0) is reported as 23%, the inhibition (pH 7.3) is reported as 42% and the inhibition (pH 8.6) is reported as 79%. For the same molecule, the “class of pH-dependence pattern” value was “Class F”, the “Ratio Reversibility” value (pH 6.0/7.3, cc 100 mM) was 0.877 and the “Ratio Tau Offset” value (pH 6.0/7.3, cc 100 mM) was 1.240. The “Ratio Tau Onset” value (pH 6.0/7.3, cc 100 mM) was 0.900, the “log Ratio App Aff” value (pH 6.0/7.3, cc 100 mM) was 0.387 and the “Ratio Reversibility” value (pH 6.0/8.6, cc 100 mM) was 1.714. For the same molecule, the “Ratio Tau Offset” value (pH 6.0/8.6, cc 100 mM) was 0.894, the “Ratio Tau Onset” value (pH 6.0/8.6, cc 100 mM) was 1.154 and the “log Ratio App Aff” value (pH 6.0/8.6, cc 100 mM) was 1.096. It also gave a τoffset (pH 6.0) of 18.60 s, a τonset (pH 6.0) of 9.00 s and a Kd [1] of 334 µM. For the same molecule, the “Ratio Reversibility” value (pH 7.3/8.6, cc 100 mM) was 1.955, the “Ratio Tau Offset” value (pH 7.3/8.6, cc 100 mM) was 0.721 and the “Ratio Tau Onset” value (pH 7.3/8.6, cc 100 mM) was 1.282. For the same molecule, the “log Ratio App Aff” value (pH 7.3/8.6, cc 100 mM) was 0.709, the τoffset (pH 7.3) was 15.00 s and the τonset (pH 7.3) was 10.00 s. It also gave a Kd [2] of 137 µM, a τoffset (pH 8.6) of 20.80 s and a τonset (pH 8.6) of 7.80 s. For the same molecule, the Kd [3] was 26.8 µM, the Reversibility (pH=6.0, cc 100 mM) was 0.80 and the Kd [4] was 334 µM. For the same molecule, the Reversibility (pH=7.3, cc 100 mM) was 0.92, the Kd [5] was 137 µM and the Reversibility (pH=8.6, cc 100 mM) was 0.47. The Kd [6] was 26.8 µM.
With Cc1ccc(C(=O)C(C)CN2CCCCC2)cc1 (stereo not drawn) [tolperisone] the “decrease of recovery at pH = 8.6 as compared to pH = 7.3” value was 1.35 fold, the “class of pH-dependence pattern” value was “Class F” and the “Ratio Reversibility” value (pH 6.0/7.3, cc 100 mM) was 0.699. The “Ratio Tau Offset” value (pH 6.0/7.3, cc 100 mM) was 1.256, the “Ratio Tau Onset” value (pH 6.0/7.3, cc 100 mM) was 1.028 and the “log Ratio App Aff” value (pH 6.0/7.3, cc 100 mM) was 0.132. For the same molecule, the “Ratio Reversibility” value (pH 6.0/8.6, cc 100 mM) was 0.944, the “Ratio Tau Offset” value (pH 6.0/8.6, cc 100 mM) was 1.286 and the “Ratio Tau Onset” value (pH 6.0/8.6, cc 100 mM) was 1.423. For the same molecule, the “log Ratio App Aff” value (pH 6.0/8.6, cc 100 mM) was 0.542, the τoffset (pH 6.0) was 16.20 s and the τonset (pH 6.0) was 7.40 s. The Kd [1] was 373 µM, the “Ratio Reversibility” value (pH 7.3/8.6, cc 100 mM) was 1.349 and the “Ratio Tau Offset” value (pH 7.3/8.6, cc 100 mM) was 1.024. For the same molecule, the “Ratio Tau Onset” value (pH 7.3/8.6, cc 100 mM) was 1.385, the “log Ratio App Aff” value (pH 7.3/8.6, cc 100 mM) was 0.410 and the τoffset (pH 7.3) was 12.90 s. The τonset (pH 7.3) was 7.20 s, the Kd [2] was 275 µM and the τoffset (pH 8.6) was 12.60 s. The τonset (pH 8.6) was 5.20 s, the Kd [3] was 107 µM and the “KD app, effect of acidic medium” value (pH = 6.0 vs neutral, increased KD app = decreased apparent affinity) was “MEM,MEX,TOL↑”. It also gave a Reversibility (pH=6.0, cc 100 mM) of 0.65, a Kd [4] of 373 µM and a Reversibility (pH=7.3, cc 100 mM) of 0.93. For the same molecule, the Kd [5] was 275 µM, the Reversibility (pH=8.6, cc 100 mM) was 0.69 and the Kd [6] was 107 µM.
COc1ccc(C(CN(C)C)C2(O)CCCCC2)cc1 (stereo not drawn) [venlafaxine] was tested, and the Kd (Apparent Affinity, pH=6.0, cc 100 mM) was 810 µM, the Kd (Apparent Affinity, pH=7.3, cc 100 mM) was 539 µM and the Kd (Apparent Affinity, pH=8.6, cc 100 mM) was 174 µM. For the same molecule, the “class of pH-dependence pattern” value was “Class D”, the Kd (apparent affinity, pH 6.0, single concentration (lidocaine 300 μM, memantine 30 μM), geometric mean of 5) was 810 µM and the Kd (apparent affinity, pH 7.3, single concentration (lidocaine 300 μM, memantine 30 μM), geometric mean of 5) was 539 µM. For the same molecule, the Kd (apparent affinity, pH 8.6, single concentration (lidocaine 300 μM, memantine 30 μM), geometric mean of 5) was 174 µM, the inhibition at 100 µM (pH 6) was < 25% and the “Ratio Reversibility” value (pH 6.0/7.3, cc 100 mM) was 0.250. The “Ratio Tau Offset” value (pH 6.0/7.3, cc 100 mM) was 1.446, the “Ratio Tau Onset” value (pH 6.0/7.3, cc 100 mM) was 1.639 and the “log Ratio App Aff” value (pH 6.0/7.3, cc 100 mM) was 0.177. The “Ratio Reversibility” value (pH 6.0/8.6, cc 100 mM) was 0.250, the “Ratio Tau Offset” value (pH 6.0/8.6, cc 100 mM) was 1.330 and the “Ratio Tau Onset” value (pH 6.0/8.6, cc 100 mM) was 1.405. The “log Ratio App Aff” value (pH 6.0/8.6, cc 100 mM) was 0.669, the τoffset (pH 6.0) was 13.30 s and the τonset (pH 6.0) was 11.80 s. For the same molecule, the inhibition at 100 µM (pH 7.3) was < 25%, the “Ratio Reversibility” value (pH 7.3/8.6, cc 100 mM) was 0.999 and the “Ratio Tau Offset” value (pH 7.3/8.6, cc 100 mM) was 0.920. For the same molecule, the “Ratio Tau Onset” value (pH 7.3/8.6, cc 100 mM) was 0.857, the “log Ratio App Aff” value (pH 7.3/8.6, cc 100 mM) was 0.492 and the τoffset (pH 7.3) was 9.20 s. For the same molecule, the τonset (pH 7.3) was 7.20 s, the τoffset (pH 8.6) was 10.00 s and the τonset (pH 8.6) was 8.40 s. For the same molecule, the “effect of acidic pH on recovery” value (pH = 6.0 vs 7.3, in words) was “decreased recovery”, the Reversibility (pH=6.0, cc 100 mM) was 0.18 and the Reversibility (pH=7.3, cc 100 mM) was 0.73. For the same molecule, the Reversibility (pH=8.6, cc 100 mM) was 0.73.
